The values below come from patent US8153694B2, “Cyclopropanecarboxylic acid compound” (Takeda Pharmaceutical Company Limited, priority 2005, dated 2012).

Where a name gives a salt, the structure may show the parent alone.

This assay has as its target T1, human GPR40 (Homo sapiens, UniProt O14842).
T1 construct: expressed in transfected cells; host or cells: CHO cell line stably expressing human GPR40
In words: Receptor function modulating action (agonist action) against human-derived GPR40: intracellular calcium change by FLIPR in CHO cells stably expressing human GPR40. It counts as cell-based. As for the experimental part: Receptor Function Modulating Action (Agonist Action) against Human-Derived GPR40 For determination of agonist activity, CHO cell line that stably expressed human GPR40 was used. […] The cells cultured to nearly confluent were rinsed with PBS (Invitrogen) on the previous day of the assay, peeled off with EDTA ([…], Wako Junyaku) and recovered by centrifugation. The number of the obtained cells was counted, and the cells were diluted such that 3×10^5 cells were contained per 1 mL of the medium, dispensed to a 96 well black clear bottom plate (coaster) by 100 μL per well and cultured overnight in a CO2 incubator. Various test compounds were added to the CHO cells thus prepared, and the changes in the intracellular calcium concentration were measured using FLIPR (Molecular Device). The below-mentioned pre-treatment was applied to measure changes in the intracellular calcium concentration by FLIPR. […] A fluorescence dye solution was prepared by adding 500 μM probenecid dissolved in 1N NaOH to the assay buffer to a final concentration of […], and adding the solution (10 mL) to 1 vial of component A (Molecular Device). One day before the assay, the medium of CHO cells re-plated on a 96 well black clear bottom plate was removed, and the cells were washed with D-PBS(−). […] Then, the fluorescence dye solution was dispensed by 100 μL per well, and the cells were cultured in a CO2 incubator for 1 hr to allow uptake of the fluorescence dye by the cells. During this period, the test compound was diluted to a given concentration with the assay buffer, and dispensed to a polypropylene 96-well plate (sample plate) by 100 μL. The cell plate and the sample plate were simultaneously set on FLIPR. After the above-mentioned pre-treatment, variation in the intracellular calcium concentration after addition of various test compounds (50 μL) was measured by FLIPR.

Where [1] appears, read: agonist activity of each compound at 1 μM, relative to the activity of 10 μM γ-linolenic acid as 100%, CHO cell line stably expressing human GPR40.

T1 sequence (O14842 whole entry): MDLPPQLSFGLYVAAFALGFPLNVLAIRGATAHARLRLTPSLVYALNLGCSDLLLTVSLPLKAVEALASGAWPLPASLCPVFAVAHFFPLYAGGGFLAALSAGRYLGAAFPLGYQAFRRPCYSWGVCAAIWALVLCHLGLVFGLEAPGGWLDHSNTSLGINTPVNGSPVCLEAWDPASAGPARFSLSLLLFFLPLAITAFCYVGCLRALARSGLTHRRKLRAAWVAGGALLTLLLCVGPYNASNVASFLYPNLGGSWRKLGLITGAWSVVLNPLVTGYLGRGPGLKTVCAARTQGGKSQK

With `CCOCCOc1cc(C)c(-c2cccc(COc3ccc(C4CC4C(=O)O)cc3)c2)c(C)c1` (centres unmarked) [Example 2, 2-(4-{[4′-(2-ethoxyethoxy)-2′,6′-dimethylbiphenyl-3-yl]methoxy}phenyl)cyclopropanecarboxylic acid], the Relative activity value under setting [1] is recorded as 111%.
For `CCOCCOc1cc(C)c(-c2cccc(COc3ccc(C4CC4C(=O)O)cc3)c2)c(C)c1` (centres unmarked) [Example 3, 2-(4-{[4′-(2-ethoxyethoxy)-2′,6′-dimethylbiphenyl-3-yl]methoxy}phenyl)cyclopropanecarboxylic acid calcium salt], the Relative activity value (agonist activity of each compound at 1 μM, relative to the activity of 10 μM γ-linolenic acid as 100%, CHO cell line stably expressing human GPR40, calcium salt) is reported as 103%.
For the compound `Cc1cc(OC2CCS(=O)(=O)CC2)cc(C)c1-c1cccc(COc2ccc(C3CC3C(=O)O)cc2)c1` (centres unmarked) [Example 5, 2-[4-({4′-[(1,1-dioxidotetrahydro-2H-thiopyran-4-yl)oxy]-2′,6′-dimethylbiphenyl-3-yl}methoxy)phenyl]cyclopropanecarboxylic acid], under setting [1], the Relative activity value came to 108%.
Same read-out and setting: the figure for `Cc1cc(OCC2(C)COC2)cc(C)c1-c1cccc(COc2ccc(C3CC3C(=O)O)cc2)c1` (centres unmarked) [Example 7, 2-[4-({2′,6′-dimethyl-4′-[(3-methyloxetan-3-yl)methoxy]biphenyl-3-yl}methoxy)phenyl]cyclopropanecarboxylic acid] is 119%; for `CC(C)CCN(Cc1ccc(COc2ccc(C3CC3C(=O)O)cc2)cc1)c1nc(-c2ccc(C(F)(F)F)cc2)cs1` (centres unmarked) [Example 9] it is 99%; for `CCCN(Cc1ccc(COc2ccc(C3CC3C(=O)O)cc2)cc1)c1nc(-c2ccc(C(F)(F)F)cc2)cs1` (centres unmarked) [Example 11, 2-[4-({4-[(propyl{4-[4-(trifluoromethyl)phenyl]-1,3-thiazol^-2-yl}amino)methyl]benzyl}oxy)phenyl]cyclopropanecarboxylic acid] it is 114%.
Same read-out and setting: next, `O=C(O)C1CC1c1ccc(OCc2cccc(Oc3ccccc3)c2)cc1` (centres unmarked) [Example 13, 2-{4-[(3-phenoxybenzyl)oxy]phenyl)cyclopropanecarboxylic acid]: 109%.
In the case of `CCCCC/C=C\C/C=C\C/C=C\CCCCC(=O)O` [γ-linolenic acid, reference compound], the Relative activity value (reference: activity of 10 μM γ-linolenic acid (GPR40 agonist) set as 100%, CHO cell line stably expressing human GPR40) was determined as 100%.
